Data: patent US6306613A, “Modulators of leaderless protein export and methods for identifying and using the same” (Ciblex Corporation, priority 1999, dated 2001)

Key:
[1] = tested on: export of 18 kD FGF-2 from COS cells; assay: FGF-2 export from transfected COS cells, pulse-chase and immunoprecipitation; assay type: cell-based; details: for inhibition of export of FGF-2 / IC50: COS cells; for inhibition of export of FGF-2: 10 nM to 1 mM in chase; for IC50: FGF-2 export, modulator in chase medium, read-out: concentration that inhibits 50% of leaderless protein export
Procedure: For an immunoprecipitation assay after transfection, the COS cells are metabolically pulse-labeled for 15 minutes with 100 μCi of ^35 S-methionine and ^35 S-cysteine (Trans ^35 S-label, ICN Biomedicals, Irvine, Calif.) in 1 ml of methionine and cysteine free DMEM. Following labeling, the cell monolayers are washed once with DMEM supplemented with excess (10 mM) unlabeled methionine and cysteine for 1-2 minutes. Cells are then cultured in 2 ml of this medium for the indicated lengths of time and the cell supernatants are immunoprecipitated for the presence of leaderless protein. For the indicated cultures, chase medium is supplemented with modulator at the indicated concentrations.
COS cells are cultured in Dulbecco's Modified Eagle Medium (DMEM, University of California San Diego Core Facility) supplemented with 10% fetal bovine serum (Gemini Bioproducts, Inc.), 2 mM L-glutamine, 1 mM sodium pyruvate, 0.1 mM non-essential amino acids, 100 units/ml penicillin, and 100 units/ml streptomycin. An SV-40-based expression vector containing the wild type (human) cDNA encoding multiple FGF-2 isoforms (24, 23, 22 and 18-kD) has been described previously (Florkiewiczand Sommer, supra). Approximately 3×10^5 COS cells in a 60 mm tissue culture dish are transfected with 10 μg of CsCl-purified plasmid DNA mixed with 1.0 ml of transfection buffer (140 mM NaCl, 3 mM KCl, 1 mM CaC'2, 0.5 mM MgCl2, 0.9 mM Na2 HPO4, 25 mM Tris pH 7.4; all from Sigma Chemical Company, Stl. Louis, Mo.). Under these co-transfection conditions using 2 μg of p18dx plus 10 μg pMAMneo, greater than 70% of transfected cells express both proteins, as determined by immunofluorescence microscopy. The ratio of plasmid DNA may be varied with an insignificant change in results. Forty to 48 hours post-DNA transfection COS cells are metabolically pulse-labeled for 15 minutes with 100 μCi of ^35 S-methionine and ^35 S-cysteine (Trans^35 S-label, ICN Biomedicals, Inc.) in 1.0 ml of methionine-and cysteine-free DMEM. After pulse-labeling, the cell monolayers are washed once with DMEM supplemented with excess (10 mM) unlabeled methionine and cysteine (Sigma Chemical Company) and then cultured in 1.0 ml of the same medium (chase) for the indicated lengths of time. Cultures treated with brefeldin A include 15 μg/ml of brefeldin A in the chase medium. Chase medium is also supplemented with 25 μg/ml heparin (Sigma Chemical Company). Although heparin is not necessary to qualitatively detect FGF-2 export, it is necessary in order to quantitatively detect the export of FGF-2 in this assay.
Cell and medium fractions are prepared for immunoprecipitation essentially as described previously (Florkiewicz et al., 1991) except that 400 μl of lysis buffer without NaCl (1% NP-40, 0.5% deoxycholate, 20 mM Tris pH 7.5, 5 mM EDTA, 2 mM EGTA, 0.01 mM phenylinethylsufonyl fluoride, 10 ng/ml aprotiniul, 10 ng/ml leupeptin, and 10 ng/ml pepstatin) is added to the medium fraction clarified by microfuge centrifugation for 15 minutes at 4° C. before adding immune serum. Both cell and medium fractions are incubated with a 1:200 dilution of guinea pig anti-FGF-2 immune serum (prepared in our laboratory) at 21° C. for 40 minutes and then GammaBind G Sepharose® (Pharmacia LKB Biotechnology) is added for an additional 30 minute incubation. […]

[2] = tested on: export of 18 kD FGF-2 from COS cells; details: 25 μg/ml in chase medium; cited from earlier work
[3] = tested on: secretion of hCG-α from COS cells; details: cited from earlier work
[4] = tested on: export of FPT (FGF-2 neomycin phosphotransferase chimeric protein) from COS cells; assay: Export of FPT chimera from COS cells; assay type: cell-based
[5] = tested on: IL-1α export from COS cells; assay: IL-1α export from transfected COS cells; assay type: cell-based; details: 5 mM
From the text: A vector containing a leaderless protein gene. IL-1α, is transfected into COS cells. Cells are metabolically labeled and protein precipitated with anti-IL-1α antibody. […] In contrast to the export of FGF-2, the rate of IL-1 export is slower, having a T1/2 of greater than 24 hrs. […] In addition, IL-1α can be immunoprecipitated from co-transfected COS cells (transfected with IL-1α and the Na/K ATPase α1 subunit) using anti-α1 subunit antibody (FIG. 4).

[6] = tested on: export of FGF-2 mutein Arg118Ile from COS cells; assay: FGF-2 mutein export with ouabain, Arg118Ile; assay type: cell-based
[7] = tested on: export of FGF-2 mutein Arg53Trp (R53W) from COS cells; assay: FGF-2 mutein export with ouabain, Arg53Trp; assay type: cell-based
[8] = tested on: FGF-2 export from Na+/K+ ATPase α1 co-transfected COS cells; assay: FGF-2 export from COS cells co-transfected with rat Na+/K+ ATPase α1; assay type: cell-based; details: twenty-four hours post labeling
[9] = tested on: export of FGF-2 mutein Lys144Val (K144V) from COS cells; assay: FGF-2 mutein export with ouabain, Lys144Val; assay type: cell-based
[10] = tested on: export of F-gal (FGF-2 β-gal chimeric protein) from COS cells; assay: Export of F-gal chimera from COS cells; assay type: cell-based
[11] = tested on: secretion of hCG-α from COS cells; assay: hCG-α secretion from transfected COS cells (leader sequence control); assay type: cell-based
Procedure: An expression vector encoding hCG-cc (Guan et al., J. Biol. Chem. 263:5306-5313, 1988), which has a signal sequence, is used as a control to monitor proteins trafficked through the ER/Golgi.
COS cells are co-transfected as described above with plasmids expressing FGF-2, hCG-α, or neomycin phosphotransferase. Metabolic labeling is performed as described above, except that during the chase period, modulator that inhibits export is added at 10 nM to 1 mM in log increments. At the end of the chase, cells and cell media are harvested and processed for immune precipitations as described above.

[12] = tested on: VSV N protein export from COS cells; assay type: cell-based
[13] = tested on: export of FGF-2 mutein Lys134Thr (K134T) from COS cells; assay: FGF-2 mutein export with ouabain, Lys134Thr; assay type: cell-based
[14] = tested on: export of FGF-2 mutein Cys78Ser + Cys96Ser (C78,96S) from COS cells; assay: FGF-2 mutein export with ouabain, Cys78Ser + Cys96Ser; assay type: cell-based

SMILES: C[C@H]1O[C@@H](O[C@H]2[C@@H](O)C[C@H](O[C@H]3[C@@H](O)C[C@H](O[C@H]4CC[C@@]5(C)[C@H](CC[C@@H]6[C@@H]5C[C@@H](O)[C@]5(C)[C@@H](C7=CC(=O)OC7)CC[C@]65O)C4)O[C@@H]3C)O[C@@H]2C)C[C@H](O)[C@@H]1O [digoxin]
- inhibition of export of FGF-2 [1]: inhibit
- IC50 [1]: ~5 µM

SMILES: C[C@H]1CCC/C=C/[C@@H]2C[C@H](O)C[C@H]2[C@H](O)/C=C/C(=O)O1 [Brefeldin A]
- effect on FGF-2 export [2]: no substantial effect
- sensitivity of hCG-α secretion [3]: brefeldin sensitive

SMILES: C[C@@H]1O[C@@H](O[C@H]2C[C@@H](O)[C@]3(CO)[C@H]4[C@H](O)C[C@]5(C)[C@@H](C6=CC(=O)OC6)CC[C@]5(O)[C@@H]4CC[C@]3(O)C2)[C@H](O)[C@H](O)[C@H]1O [Ouabain]
- inhibition of export of FPT [4]: can be inhibited
- inhibition of IL-1α export [5]: inhibted
- Effect of Ouabain on Export [6]: decrease
- FGF-2 in Cells, 7 hr (+) Ouabain [6]: 79%
- FGF-2 in Media, 7 hr (+) Ouabain [6]: 21%
- Effect of Ouabain on Export ([7]; Arg53Trp): decrease
- FGF-2 in Cells, 7 hr (+) Ouabain ([7]; R53W): 70%
- FGF-2 in Media, 7 hr (+) Ouabain ([7]; R53W): 30%
- FGF-2 in media at 1 mM [8]: significant amounts of FGF-2 can be detected in media
- FGF-2 in Cells, 7 hr (+) Ouabain ([9]; K144V): 70%
- FGF-2 in Media, 7 hr (+) Ouabain ([9]; K144V): 30%
- Effect of Ouabain on Export ([9]; Lys144Val): decrease
- inhibition of export of F-gal [10]: can be inhibited
- effect on secretion of hCG-α [11]: does not affect secretion of hCG-α
- sensitivity of N protein export [12]: ouabain-resistant
- inhibition of FGF-2 export at 1 mM ([1]; 1 mM, FGF-2 only transfected COS cells): completely inhibit
- inhibition of export of FGF-2 [1]: inhibit
- IC50 [1]: ~0.1 µM
- FGF-2 in Cells, 7 hr (+) Ouabain [13]: 70%
- FGF-2 in Media, 7 hr (+) Ouabain [13]: 30%
- FGF-2 in Cells, 7 hr (+) Ouabain ([14]; C78,96S): 62%
- FGF-2 in Media, 7 hr (+) Ouabain ([14]; C78,96S): 38%
- Effect of Ouabain on Export ([14]; Cys78Ser + Cys96Ser): decrease
